Test results reported in publication PMC3720812, “YjcC, a c-di-GMP Phosphodiesterase Protein, Regulates the Oxidative Stress Response and Virulence of Klebsiella pneumoniae CG43” (PLoS ONE, 2013).

Experiments:
MrkJ = molecular target: T1, MrkJ (Klebsiella pneumoniae, UniProt G3FT02); experiment: release of p-nitrophenol at […] nm; type: biochemical; conditions: positive control enzyme; activity only in figure
T1 construct: recombinant from pET30b-mrkJ, E. coli BL21(DE3), purified

YjcC-EAL domain = molecular target: T2, YjcC-EAL domain (Klebsiella pneumoniae, UniProt A6TGY2); experiment: release of p-nitrophenol at […] nm; type: biochemical; conditions: chromogenic model substrate; activity only in figure
T2 construct: EAL domain only (C-terminal)
T2 sequence (A6TGY2 entry or part of it): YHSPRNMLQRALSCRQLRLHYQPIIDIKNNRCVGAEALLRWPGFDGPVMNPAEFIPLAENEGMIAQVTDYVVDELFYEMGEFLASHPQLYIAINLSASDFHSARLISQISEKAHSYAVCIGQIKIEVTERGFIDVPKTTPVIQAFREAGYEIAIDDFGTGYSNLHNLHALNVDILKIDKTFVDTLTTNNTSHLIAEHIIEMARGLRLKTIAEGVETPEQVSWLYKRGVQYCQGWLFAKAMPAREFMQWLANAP

T1 sequence (G3FT02 entry or part of it): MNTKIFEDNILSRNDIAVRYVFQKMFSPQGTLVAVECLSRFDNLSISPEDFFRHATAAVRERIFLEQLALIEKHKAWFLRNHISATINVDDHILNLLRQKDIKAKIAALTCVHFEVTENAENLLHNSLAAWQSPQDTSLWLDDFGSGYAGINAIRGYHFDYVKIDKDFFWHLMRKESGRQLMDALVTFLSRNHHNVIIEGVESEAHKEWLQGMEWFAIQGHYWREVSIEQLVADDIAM

Structure (SMILES): O=[N+]([O-])c1ccc(OP(=O)(O)Oc2ccc([N+](=O)[O-])cc2)cc1 [bis(p-nitrophenyl) phosphate]
- specific PDE activity (MrkJ): This activity is lower than the level of the recombinant MrkJ
- specific PDE activity (YjcC-EAL domain): the purified EAL domain protein exhibits PDE activity towards pNpp
